Data from patent US7157453B2, “Urea substituted imidazoquinolines” (3M Innovation Properties Company, priority 1999, dated 2007).
Where a name gives a salt, the structure may show the parent alone.

Key:
[1] = system: interferon (α); test: Cytokine Induction in Human Cells: interferon (α) by ELISA; format: cell-based; conditions: PBMC; human PBMCs, incubated 18 to 24 hours, lowest concentration found to induce interferon
Description: (§1) An in vitro human blood cell system was used to assess cytokine induction by compounds of the invention. Activity is based on the measurement of interferon and tumor necrosis factor (α) (IFN and TNF, respectively) secreted into culture media as described by Testerman et. al. In “Cytokine Induction by the Immunomodulators Imiquimod and S-27609”, Journal of Leukocyte Biology, 58, 365–372 (September, 1995).
(§2) Whole blood is collected by venipuncture into EDTA vacutainer tubes from healthy human donors. Peripheral blood mononuclear cells (PBMCs) are separated from whole blood by density gradient centrifugation using Histopaque®-1077 (Sigma Chemicals, St. Louis, Mo.). The PBMCs are suspended at 3–4×10^6 cells/mL in RPMI 1640 medium containing 10% fetal bovine serum, 2 mM L-glutamine and 1% penicillin/streptomycin solution (RPMI complete). The PBMC suspension is added to 48 well flat bottom sterile tissue culture plates (Costar, Cambridge, Mass. or Becton Dickinson Labware, Lincoln Park, N.J.) containing an equal volume of RPMI complete media containing test compound.
(§3) The compounds are solubilized in dimethyl sulfoxide (DMSO). The DMSO concentration should not exceed a final concentration of 1% for addition to the culture wells.
(§4) The solution of test compound is added at 60 μM to the first well containing RPMI complete and serial (three fold or ten fold) dilutions are made. The PBMC suspension is then added to the wells in an equal volume, bringing the test compound concentrations to the desired range. The final concentration of PBMC suspension is 1.5–2×10^6 cells/mL. The plates are covered with sterile plastic lids, mixed gently and then incubated for 18 to 24 hours at 37° C. in a 5% carbon dioxide atmosphere.
(§5) Following incubation the plates are centrifuged for 5–10 minutes at 1000 rpm (˜200×g) at 4° C. The cell culture supernatant is removed with a sterile polypropylene pipet and transferred to sterile polypropylene tubes. Samples are maintained at −30 to −70° C. until analysis. The samples are analyzed for interferon (α) and tumor necrosis factor (α) by ELISA
Interferon (α) concentration is determined by ELISA using a Human Multi-Species kit from PBL Biomedical Laboratories, New Brunswick, N.J.
(§6) The table below lists the lowest concentration found to induce interferon and the lowest concentration found to induce tumor necrosis factor for each compound.

[2] = system: tumor necrosis factor (α); test: Cytokine Induction in Human Cells: tumor necrosis factor (α) by ELISA; format: cell-based; conditions: PBMC; human PBMCs, incubated 18 to 24 hours, lowest concentration found to induce tumor necrosis factor
Description: as §1, §2, §3, §4, §5
Tumor necrosis factor (α) (TNF) concentration is determined using ELISA kits available from Genzyme, Cambridge, Mass.; R&D Systems, Minneapolis, Minn.; or Pharmingen, San Diego, Calif.
as §6

Row | SMILES | melting point [°C] | minimal effective concentration [1] [µM] | minimal effective concentration [2] [µM]
1 | Nc1nc2ccccc2c2c1ncn2CCCCNC(=O)Oc1cccc2ccccc12 | 89 to 92 |  | 
2 | CCCCc1nc2c(N)nc3ccccc3c2n1CCCCNC(=O)NCc1ccc(OC)cc1 [Example 89] |  | 0.1 | 10
3 | COCCc1nc2c(N)nc3ccccc3c2n1CCCCNC(=O)NC12CC3CC(CC(C3)C1)C2 [Example 100] |  | 0.001 | 10
4 | CCNC(=O)NCCCCn1c(CCOC)nc2c(N)nc3ccccc3c21 [Example 101] |  | 0.01 | 1
5 | CCCNC(=O)NCCCCn1c(CCOC)nc2c(N)nc3ccccc3c21 [Example 102] |  | 0.001 | 1
6 | CCCCNC(=O)NCCCCn1c(CCOC)nc2c(N)nc3ccccc3c21 [Example 103] |  | 0.0001 | 0.1
7 | COCCc1nc2c(N)nc3ccccc3c2n1CCCCNC(=O)Nc1ccccc1 [Example 104] |  | 0.0001 | 1
8 | COCCc1nc2c(N)nc3ccccc3c2n1CCCCNC(=O)NC1CCCCC1 [Example 105] |  | 0.001 | 1
9 | COCCc1nc2c(N)nc3ccccc3c2n1CCCCNC(=O)Nc1cccc(C)c1 [Example 106] |  | 0.0001 | 1
10 | COCCc1nc2c(N)nc3ccccc3c2n1CCCCNC(=O)Nc1cccc(F)c1 [Example 107] |  | 0.0001 | 1
11 | COCCc1nc2c(N)nc3ccccc3c2n1CCCCNC(=O)Nc1cccc(C#N)c1 [Example 108] |  | 0.0001 | 0.0001
12 | COCCc1nc2c(N)nc3ccccc3c2n1CCCCNC(=O)Nc1ccc(C#N)cc1 [Example 109] |  | 0.0001 | 0.1
13 | COCCc1nc2c(N)nc3ccccc3c2n1CCCCNC(=O)N[C@H](C)c1ccccc1 [Example 110] |  | 0.001 | 1
14 | COCCc1nc2c(N)nc3ccccc3c2n1CCCCNC(=O)N[C@@H](C)c1ccccc1 [Example 111] |  | 0.001 | 1
15 | COCCc1nc2c(N)nc3ccccc3c2n1CCCCNC(=O)Nc1ccccc1Cl [Example 112] |  | 0.0001 | 0.1
16 | COCCc1nc2c(N)nc3ccccc3c2n1CCCCNC(=O)Nc1ccc(Cl)cc1 [Example 113] |  | 0.0001 | 1
17 | COCCc1nc2c(N)nc3ccccc3c2n1CCCCNC(=O)Nc1cccc([N+](=O)[O-])c1 [Example 114] |  | 0.0001 | 0.01
18 | COCCc1nc2c(N)nc3ccccc3c2n1CCCCNC(=O)Nc1ccc([N+](=O)[O-])cc1 [Example 115] |  | 0.0001 | 1
19 | COCCc1nc2c(N)nc3ccccc3c2n1CCCCNC(=O)Nc1cccc(C(F)(F)F)c1 [Example 116] |  | 0.0001 | 1
20 | COCCc1nc2c(N)nc3ccccc3c2n1CCCCNC(=O)Nc1ccc(C(F)(F)F)cc1 [Example 117] |  | 10 | 10
21 | COCCc1nc2c(N)nc3ccccc3c2n1CCCCNC(=O)Nc1c(Cl)cccc1Cl [Example 118] |  | 10 | 10
22 | COCCc1nc2c(N)nc3ccccc3c2n1CCCCNC(=O)Nc1ccccc1Br [Example 119] |  | 10 | 10

Row | SMILES | melting point [°C] | minimal effective concentration [1] [µM] | minimal effective concentration [2] [µM]
23 | COCCc1nc2c(N)nc3ccccc3c2n1CCCCNC(=O)N(C)c1ccccc1 [Example 120] |  | 0.0001 | 0.01
24 | COCCc1nc2c(N)nc3ccccc3c2n1CCCCNC(=O)N1CCOCC1 [Example 121] |  | 0.01 | 10
25 | COCCc1nc2c(N)nc3ccccc3c2n1CCCCNC(=O)N1CCCC1 [Example 122] |  | 0.001 | 1
26 | COCCc1nc2c(N)nc3ccccc3c2n1CCCCNC(=S)Nc1cccnc1 [Example 125] |  | 0.0001 | 10
27 | COCCc1nc2c(N)nc3ccccc3c2n1CCCCNC(=S)Nc1ccc(N(C)C)c2ccccc12 [Example 126] |  | 0.0001 | 1
28 | CCCNC(=S)NCCCCn1c(CCOC)nc2c(N)nc3ccccc3c21 [Example 127] |  | 0.0001 | 1
29 | CCCCc1nc2c(N)nc3c(c2n1CCCCNC(=O)NC12CC4CC(CC(C4)C1)C2)CCCC3 [Example 132] |  | 0.01 | 1
30 | CCCCc1nc2c(N)nc3c(c2n1CCCCNC(=O)NCc1ccccc1)CCCC3 [Example 133] |  | 0.1 | 10
31 | COCCc1nc2c(N)nc3c(c2n1CCCCNC(=O)N(C)C)CCCC3 [Example 134] |  | 0.001 | 1
32 | COCCc1nc2c(N)nc3c(c2n1CCCCNC(=O)N1CCOCC1)CCCC3 [Example 135] |  | 0.01 | 10
33 | COCCc1nc2c(N)nc3c(c2n1CCCCNC(=O)Nc1ccccc1)CCCC3 [Example 136] |  | 0.0001 | 1
34 | CCCCc1nc2c(N)nc3c(c2n1CCCCNC(=O)NS(=O)(=O)c1ccccc1)CCCC3 [Example 137] |  | 1 | 10
35 | CCCCc1nc2c(N)nc3ccccc3c2n1CCNC(=O)NS(=O)(=O)c1ccc(F)cc1 [Example 139] |  | > 10 | > 10
36 | CCCCc1nc2c(N)nc3ccccc3c2n1CCNC(=O)NS(=O)(=O)c1ccc(Cl)cc1 [Example 140] |  | 10 | > 10
37 | COCCc1nc2c(N)nc3ccccc3c2n1CCCCNC(=O)NC(=O)c1ccccc1 [Example 141, N^1-{4-[4-Amino-2-(2-methoxyethyl)-1H-imidazo[4,5-c]quinolin-1-yl]butyl}-N^3-benzoylurea Trifluoroacetate] |  | > 10 | 10
38 | COCCc1nc2c(N)nc3ccccc3c2n1CCCCNC(=O)OCc1ccccc1 [Example 142, N-{4-[4-Amino-2-(2-methoxyethyl)-1H-imidazo[4,5-c]quinolin-1-yl]butyl}carbamate Trifluoroacetate] |  | 0.0001 | 0.1
39 | COCCc1nc2c(N)nc3ccccc3c2n1CCCCCCCCNC(=O)Nc1ccccc1 [Example 145, N-{8-[4-amino-2-(2-methoxyethyl)-1H-imidazo[4,5-c]quinolin-1-yl]octyl}-N′-phenylurea] |  | 0.01 | 0.04
40 | CCCCc1nc2c(N)nc3ccccc3c2n1CCCNC(=O)Nc1ccccc1 [Example 146, N-[3-(4-amino-2-butyl-1H-imidazo[4,5-c]quinolin-1-yl)propyl]-N′-phenylurea] |  | 0.01 | 0.12
41 | CCCCc1nc2c(N)nc3ccccc3c2n1CCCNC(=O)OC(C)(C)C [Example 147, tert-butyl 3-(4-amino-2-butiyl-1H-imidazo[4,5-c]quinolin-1-yl)propylcarbamate] |  | 0.01 | 0.12
42 | COCCc1nc2c(N)nc3ccccc3c2n1CCCNC(=O)Nc1ccccc1 [Example 161, N-{3-[4-amino-2-(2-methoxyethyl)-1H-imidazo[4,5-c]quinolin-1-yl]propyl}-N′-phenylurea] |  | 0.01 | 0.01
43 | COCCc1nc2c(N)nc3ccccc3c2n1CC(C)(C)CNC(=O)Nc1ccccc1 [Example 169, N-{3-[4-amino-2-(2-methoxyethyl)-1H-imidazo[4,5-c]quinolin-1-yl]-2,2-dimethylpropyl}-N′-phenylurea] |  | 0.01 | 0.01
44 | CCCCCc1nc2c(N)nc3c(c2n1CCCCNC(=O)N1CCOCC1)CCCC3 [Example 172, N-[4-(4-amino-2-pentyl-6,7,8,9-tetrahydro-1H-imidazo[4,5-c]quinolin-1-yl)butyl]morpholine-4-carboxamide hydrochloride] |  | 0.01 | 0.37
